Earlier results as cited in article PMC12239574 (mBio, 2025).

System: SARS-CoV-2 with M^pro E166V

Row | SMILES | fold increase in the antiviral EC50 relative to the wild-type virus
1 | Cn1cnc(Cn2c(=O)[nH]/c(=N\c3cc4cn(C)nc4cc3Cl)n(Cc3cc(F)c(F)cc3F)c2=O)n1 [ensitrelvir] | 23 fold
2 | CC(C)(C)[C@H](NC(=O)C(F)(F)F)C(=O)N1C[C@H]2[C@@H]([C@H]1C(=O)N[C@H](C#N)C[C@@H]1CCNC1=O)C2(C)C [nirmatrelvir] | 100 fold
